Laboratory results as given in US20150258059A1, “ANTIMICROBIAL AND RADIOPROTECTIVE COMPOUNDS” (BioDiem, Ltd, priority 2001, published 2015).
≈ marks a conversion by molar mass, not a printed value.

Experiments:
[1] = system: Campylobacter jejuni 54/1-2; assay: MIC/MMC against clinical strains of Campylobacter spp.; details: Table 18; clinical strain isolated from humans
[2] = system: Klebsiella pneumoniae strain 312; assay: Impregnated agar serial double dilutions; details: meat peptone agar
C. laniolis 54/6 = assay: MIC/MMC against clinical strains of Campylobacter spp.; details: Table 18; clinical strain isolated from humans
[3] = system: Streptococcus pneumonia ATCC49619; assay: NCCLS broth microdilution MIC/MBC; assay type: cell-based; details: Table 9, 35° C., 24 hours
[4] = system: γ-hemolytic streptococcus B-672; assay: Sensitivity of strains: suppression of growth; assay type: cell-based; details: Compound (1) 1.0%; antibiotics disc method
Rhodotorula rubra [5] = assay: NCCLS broth macro-dilution MIC/MFC (RPMI); assay type: cell-based; details: Table 10, 4 day, 30° C.
physchem = details: aqueous with cosolvent or surfactant or cyclodextrin
[6] = system: Torula histolytica (Cryptococcus); assay: Sensitivity of pathogenic fungi; assay type: cell-based; details: Inoculation 10^5
[7] = system: Staphylococcus epidermidis BK-30; assay: Sensitivity of strains: suppression of growth; assay type: cell-based; details: Compound (1) 1.0%; antibiotics disc method
Klebsiella oxytoca [8] = assay: Rate of kill, viable counts
Acinetobacter B-677 = assay: Sensitivity of strains: suppression of growth; assay type: cell-based; details: Compound (1) 1.0%; antibiotics disc method
[9] = system: Acinetobacter calcoaceticus RMIT; assay: NCCLS broth microdilution MIC/MBC; assay type: cell-based; details: for MIC: Acinetobacter calcoaceticus
Description: (§1) NCCLS-USA Standard Method—Broth microdilution (or macrodilution) (Mueller-Hinton).
(§2) Inoculum 1-4×10^4 cfu (or −4×10^5 cfu). Ciprofloxacin test control. Chlorhexidine values added for disinfectant and antiseptic activity comparison.

Klebsiella oxytoca [10] = assay: NCCLS broth microdilution MIC/MBC; assay type: cell-based; details: for MIC: Klebsiella oxytoca
Description: as §1, §2

Campylobacter spp. = assay: NCCLS broth microdilution MIC/MBC; assay type: cell-based; details: Table 9, 48 h
Description: as §1, §2

Clostridium difficile = assay: NCCLS broth microdilution MIC/MBC; assay type: cell-based; details: Clostridioides difficile; Table 9
Description: as §1, §2

Clostridium perfringens = assay: microbe, parasite or virus in culture; assay type: cell-based; details: 48 h
Microsporum gypseum = assay: M38-P microdilution MIC/MFC; assay type: cell-based; details: Table 16, Dermatophytes
[11] = system: Enterobacter aerogenes B-687; assay: Sensitivity of strains: suppression of growth; assay type: cell-based; details: Compound (1) 1.0%; antibiotics disc method
[12] = system: Klebsiella pneumoniae M-A21; assay: Sensitivity of strains: suppression of growth; assay type: cell-based; details: Compound (1) 1.0%; antibiotics disc method
Pseudoallescheria boydii = assay: M38-P microdilution MIC/MFC; assay type: cell-based; details: Table 16, Dematiaceous fungi
Klebsiella pneumoniae = assay: NCCLS broth microdilution MIC/MBC; assay type: cell-based; details: for MIC: Klebsiella pneumoniae
Aspergillus fumigatus [13] = assay: M38-P microdilution MIC/MFC; assay type: cell-based; details: Table 16, 48 h, 35° C.
Cryptococcus neoformans = assay: M38-P microdilution MIC/MFC; assay type: cell-based; details: Cryptococcus neoformans, Table 16, 24 h, 35° C., read-out: MIC
Salmonella typhimurium = assay: Agar plug diffusion, zone of retardation; details: plug impregnated at 0.5%
Mycobact tub. H.37RV = assay: Anti-TB effect, serial double dilution in liquid medium; assay type: cell-based, M tuberculosis; details: read-out: Minimal Inhibitory Concentration
[14] = system: Salmonella paratyphi M-16469; assay: Sensitivity of strains: suppression of growth; assay type: cell-based; details: Compound (1) 1.0%; antibiotics disc method
[15] = system: Neisseria meningitidis M-A72; assay: Sensitivity of strains: suppression of growth; assay type: cell-based; details: Compound (1) 1.0%; antibiotics disc method
Aspergillus fumigatus [16] = assay: microbe, parasite or virus in culture; assay type: cell-based; details: for MIC: Aspergillus fumigatus
[17] = system: Salmonella typhimurium M-727; assay: Sensitivity of strains: suppression of growth; assay type: cell-based; details: Compound (1) 1.0%; antibiotics disc method
Rhodotorula rubra [18] = assay: microbe, parasite or virus in culture; assay type: cell-based; details: for MIC: Rhodotorula
Bacillus subtilis RMIT = assay: NCCLS broth microdilution MIC/MBC; assay type: cell-based; details: for MIC: Bacillus subtilis
C. jejuni 541-3 = assay: MIC/MMC against clinical strains of Campylobacter spp.; details: Table 18; clinical strain isolated from humans
[19] = Table 20, […], after 12 weeks continuous exposure, read-out: MIC Final
[20] = Table 20, […], parent strain, read-out: MIC Initial
[21] = before exposure, MHB, read-out: Standard MIC Initial

Structure (SMILES): C/C(=C\c1ccc2c(c1)OCO2)[N+](=O)[O-] [Compound (1)]
- MMC [1]: 2
- Minimal % Compound (1) giving complete inhibition of test culture [2]: 0.12%
- MMC (C. laniolis 54/6): 2
- MIC ([3]; Streptococcus pneumoniae, ATCC49619): 16 µg/mL (≈ 77.2 µM)
- MMC [3]: 32 µg/mL
- Suppression of Growth (+/−) [4]: +
- MIC (Rhodotorula rubra [5]; Rhodotorula, 96 h): 8 µg/mL (≈ 38.6 µM)
- MMC (Rhodotorula rubra [5]): 8 µg/mL
- solubility (physchem): 1000 µg/mL (≈ 4830 µM)
- Number of microbes: Growth ([6]; 0.1%): 0
- Number of microbes: Retardation ([6]; 0.1%): 10^5
- Number of microbes: Growth ([6]; 0.5%): 0
- Number of microbes: Retardation ([6]; 0.5%): 10^5
- Number of microbes: Growth ([6]; 2.0%): 0
- Number of microbes: Retardation ([6]; 2.0%): 10^5
- Suppression of Growth (+/−) [7]: +
- Log reduction in viable count (Klebsiella oxytoca [8]; 256 μg/mL): 0
- Log reduction in viable count (Klebsiella oxytoca [8]; 512 μg/mL): 0
- Suppression of Growth (+/−) (Acinetobacter B-677): +
- MIC ([9]; Table 9, 35° C., 24 hours): 128 µg/mL (≈ 618 µM)
- MIC ([9]; Table 17, 2 or 3 replicates): 128 µg/mL (≈ 618 µM)
- MMC ([9]; Table 9, 35° C., 24 hours): 256 µg/mL
- MMC ([9]; Table 17, 2 or 3 replicates): 256 µg/mL
- MIC (Klebsiella oxytoca [10]; Table 9, 35° C., 24 hours): 128 µg/mL (≈ 618 µM)
- MIC (Klebsiella oxytoca [10]; Table 17, 2 or 3 replicates): 128 µg/mL (≈ 618 µM)
- MMC (Klebsiella oxytoca [10]; Table 9, 35° C., 24 hours): 256 µg/mL
- MMC (Klebsiella oxytoca [10]; Table 17, 2 or 3 replicates): 256 µg/mL
- MIC (Campylobacter spp.; Campylobacter): 128 µg/mL (≈ 618 µM)
- MMC (Campylobacter spp.): 128 µg/mL
- MIC (Clostridium difficile): 4 µg/mL (≈ 19.3 µM)
- MIC (Clostridium perfringens; Clostridium perfringens): 16 µg/mL (≈ 77.2 µM)
- MMC (Clostridium perfringens; Table 9): 32 µg/mL
- MIC (Microsporum gypseum; Nannizzia gypsea): 1 µg/mL (≈ 4.83 µM)
- MMC (Microsporum gypseum): 8 µg/mL
- Suppression of Growth (+/−) [11]: +
- Suppression of Growth (+/−) [12]: +
- MMC (Pseudoallescheria boydii): 4 µg/mL
- MIC (Pseudoallescheria boydii; read-out: MIC): 2 µg/mL (≈ 9.65 µM)
- MIC (Klebsiella pneumoniae; Table 9, 35° C., 24 hours): 512 µg/mL (≈ 2470 µM)
- MIC (Klebsiella pneumoniae; Table 17, 2 or 3 replicates): 512 µg/mL (≈ 2470 µM)
- MMC (Klebsiella pneumoniae; Table 9, 35° C., 24 hours): >512 µg/mL
- MMC (Klebsiella pneumoniae; Table 17, 2 or 3 replicates): >512 µg/mL
- MIC (Aspergillus fumigatus [13]; Aspergillus fumigatus): 8 µg/mL (≈ 38.6 µM)
- MMC (Aspergillus fumigatus [13]): 32 µg/mL
- MIC (Cryptococcus neoformans): 1 µg/mL (≈ 4.83 µM)
- Size of zone of retardation of the growth (Salmonella typhimurium): 7
- MIC (Mycobact tub. H.37RV): 6.25 µg/mL (≈ 30.2 µM)
- Suppression of Growth (+/−) [14]: +
- Suppression of Growth (+/−) [15]: +
- MIC (Aspergillus fumigatus [16]; [19]): 8 µg/mL (≈ 38.6 µM)
- MIC (Aspergillus fumigatus [16]; [20]): 8 µg/mL (≈ 38.6 µM)
- MIC (Aspergillus fumigatus [16]; [21]): 8 µg/mL (≈ 38.6 µM)
- 7-Day MIC Range (Aspergillus fumigatus [16]; to Wk 5): 8-32 to Wk 5 μg/mL
- Suppression of Growth (+/−) [17]: +
- MIC (Rhodotorula rubra [18]; [19]): 16 µg/mL (≈ 77.2 µM)
- MIC (Rhodotorula rubra [18]; [20]): 8 µg/mL (≈ 38.6 µM)
- MIC (Rhodotorula rubra [18]; [21]): 8 µg/mL (≈ 38.6 µM)
- 7-Day MIC Range (Rhodotorula rubra [18]; to Wk 5): 8-32 to Wk 5 μg/mL
- MIC (Bacillus subtilis RMIT; Table 9, 35° C., 24 hours): 16 µg/mL (≈ 77.2 µM)
- MIC (Bacillus subtilis RMIT; Table 17, 2 or 3 replicates): 16 µg/mL (≈ 77.2 µM)
- MMC (Bacillus subtilis RMIT; Table 9, 35° C., 24 hours): 16 µg/mL
- MMC (Bacillus subtilis RMIT; Table 17, 2 or 3 replicates): 16 µg/mL
- MMC (C. jejuni 541-3): 2
